# In patent publication US8637252B2, “Methods and compositions for determining altered susceptibility of HIV-1 to anti-HIV drugs” (Monogram Biosciences, Inc., priority 2011, dated 2014):
# Where “and” joins values, the source holds several entries; their conditions need not be identical. Equal values may be shown once.
# Columns and labels:
# [1] = tested on: HIV-1 (patient-derived RHIN segment); assay: phenotypic drug resistance test, resistance test vectors with patient-derived RHIN segment, luciferase, 293 cells; format: cell-based
# From the text: Patient-derived segment(s) corresponding to the entire pol gene, encoding HIV protease, reverse transcriptase (including RNAse H), and integrase (hereinafter “POL”), the portion of pol encoding amino acids 1-305 of reverse transcriptase (hereinafter “PR-RT”), the portion of pol encoding amino acids 319-440 of reverse transcriptase (including RNAse H), and integrase (hereinafter “RHIN”), were amplified by the reverse transcription-polymerase chain reaction method (RT-PCR) using viral RNA isolated from viral particles present in the plasma or serum of HIV-infected individuals as described below. The portion of pol encoding protease, amino acids 1-531 of reverse transcriptase (including RNase H) (hereinafter “PRRT-RH”), or the portion of pol encoding protease, reverse transcriptase (including RNAse H) and integrase (hereinafter “PRRT-RHIN”), were assembled from amplicons described above by standard recombinant DNA techniques involving a KpnI restriction site at amino acid 400 or a Pin A1 site at amino acid 315.
# Virus was pelleted by centrifugation at 20,400×g for 60 min from plasma (typically, 1 ml) prepared from blood samples collected in evacuated tubes containing either EDTA, acid-citrate dextrose, or heparin as an anticoagulant. Virus particles were disrupted by resuspending the pellets in 200 [1.1 of lysis buffer (4 M guanidine thiocyanate, 0.1 M Tris HCl (pH 8.0), 0.5% sodium lauryl sarcosine, 1% dithiothreitol). RNA was extracted from viral lysates by using oligo(dT) linked to magnetic beads (Dynal, Oslo, Norway). Reverse transcription was performed with Superscript III (Invitrogen) at 50 degrees for 1 hour using primer 1.
# From the resultant cDNA either POL or RHIN sequences were amplified using the Advantage High Fidelity PCR kit (BD Biosciences; Clontech). POL amplification products are made using forward Primer 3 containing an Apal site and reverse Primer 4 containing a Xho 1 site. RHIN amplification products are made using forward Primer 2 containing a P1NA1 site and reverse Primer 4 containing a Xho 1 site.
# A retroviral vector designed to measure antiretroviral drug susceptibility was constructed by using an infectious molecular clone of HIV-1. The vector, referred to herein as an indicator gene viral vector (IGVV), is replication defective and contains a luciferase expression cassette inserted within a deleted region of the envelope (env) gene. The IGVV is described in U.S. Pat. No. 5,837,464 (International Publication Number WO 97/27319) which is hereby incorporated by reference in its entirety. This retroviral vector was further modified to allow insertion of either the entire pol gene (POL) or the portion of poi encoding amino acids 319-440 of reverse transcriptase, the RNase H portion of reverse transcriptase, and integrase (REIN) by engineering an Xho l restriction enzyme recognition site into vif. Prior to doing this, an Xho 1 site in nef was deleted. Resistance Test vectors (RTVs) were constructed by incorporating amplified POL or RHIN into the IGVV by using Apal and Xhol or PinAI and Xho 1 restriction sites respectively. RTVs were prepared as libraries (pools) in order to capture and preserve the pol or RHIN sequence heterogeneity of the virus in the patient. POL amplification products were digested with Apal and Xhol, purified by agarose gel electrophoresis, and ligated to ApaI- and Xhol-digested IGVV DNA. RHIN amplification products were digested with PinAI and Xho/, purified by agarose gel electrophoresis, and ligated to PinAI and Xhol-digested IGVV DNA. Ligation reactions were used to transform competent Escherichia coli (Invitrogen, Carlsbad, Calif.). An aliquot of each transformation was plated onto agar, and colony counts were used to estimate the number of patient-derived segments represented in each RTV library. RTV libraries that comprised less than 50 members are not considered representative of the patient virus. […]
# [2] = tested on: HIV-1 NL4-3 site-directed reverse transcriptase mutants; assay: phenotypic drug resistance test, site-directed reverse transcriptase mutants in NL4-3 background (POL segment assay); format: cell-based; details: G190S and E399D combination mutant
# Method: Further, a site directed double mutant T3691/K103N was generated using conventional techniques and tested for resistance to an NNRTI using the methods described above.
# To assess the effects of mutations at positions 348, 369, and 399, a series of site-directed mutants were constructed in an wild-type (NL4-3) background. The NNRTI susceptibility phenotypes of these mutants were then determined using the POL segment assay according to Example 2.
# In particular, site-directed mutants were constructed in an NL4-3 background comprising N348I, T369I, E399D, or the combination of N3481 and T369I.
# Next, a series of site-directed mutants were constructed to assess the effects of combinations of N3481, T369I, and E399D with previously recognized NNRTI resistance mutations. In particular, mutants comprising N348I, T369I, and E399D were made in combination with G190S, with K103N, and with the combination of K103R and V179D. The effects of these combinations on DLV, EFV, and NVP susceptibility were tested using the POL segment assay according to the method describe in Example 2. The results from these experiments are presented as FIG. 10.
# To assess the specific effects of mutations at positions 348, 369, and 399, a series of site-directed mutants were constructed in an wild-type (NL4-3) background. The AZT susceptibility phenotype of these mutants were then determined with a POL segment assay according to Example 2.
# In particular, site-directed mutants were constructed in an NL4-3 background comprising N348I, T3691, E399D, or the combination of N348I and T3691. The FC in AZT susceptibility for each mutant is shown as FIG. 13.
smiles,measurement,setting,value
"CC(C)Nc1cccnc1N1CCN(C(=O)c2cc3cc(NS(C)(=O)=O)ccc3[nH]2)CC1 [DLV, delavirdine]","fold change in IC50, RHIN",[1]; Sample 31 (K103N),1.1 fold
same,"fold change in IC50, RHIN",[1]; Sample 33 (K103S),0.7 fold
same,"fold change in IC50, RHIN",[1]; Sample 34,0.7 fold
same,"fold change in IC50, RHIN",[1]; Sample 35 (K103H),0.8 fold
same,"fold change in IC50, RHIN",[1]; Sample 36 (K103K/W),0.9 fold
same,"fold change in IC50, RHIN",[1]; Sample 38 (K103N),0.5 fold
same,"fold change in IC50, RHIN",[1]; Sample 39 (T369A),1.2 fold
same,"fold change in IC50, RHIN",[1]; Sample 42 (G190G/A),0.5 fold
same,"fold change in IC50, RHIN",[1]; Sample 45,1.0 fold
same,"fold change in IC50, RHIN","[1]; Sample 47 (K103K/N, V106V/A, Y181Y/C, G190G/A)",0.6 fold
same,"fold change in IC50, RHIN",[1]; Sample 50 (K103N),0.4 fold
same,"fold change in IC50, RHIN",[1]; Sample 51,0.4 fold
same,"fold change in IC50, RHIN",[1]; Sample 52,0.9 fold
same,"fold change in IC50, RHIN","[1]; Sample 58 (K103N, Y181Y/C, G190G/A)",1.5 fold
same,"fold change in IC50, RHIN","[1]; Sample 62 (K103H, P225P/H, T369T/I)",3.4 fold and 3.36 fold
same,"fold change in IC50, RHIN",[1]; Sample 64 (T369T/A),0.3 fold
same,"fold change in IC50, RHIN",[1]; Sample 69,0.7 fold
same,"fold change in IC50, RHIN",[1]; Sample 72,1.7 fold
same,"fold change in IC50, RHIN","[1]; Sample 80 (K103K/N, Y181Y/C)",0.58 fold
same,"fold change in IC50, RHIN","[1]; Sample 81 (K103N, P225H)",0.9 fold
same,"fold change in IC50, RHIN",[1]; Sample 84,0.4 fold
same,"fold change in IC50, RHIN",[1]; Sample 85,1.4 fold
same,"fold change in IC50, RHIN",[1]; Sample 87,1.3 fold
same,"fold change in IC50, RHIN","[1]; Sample 89 (L1001, K103N)",1.5 fold
same,"fold change in IC50, RHIN","[1]; Sample 90 (K103K/N, Y181C, G190A)",0.6 fold
same,"fold change in IC50, RHIN",[1]; Sample 92,0.3 fold
same,"fold change in IC50, RHIN",[1]; Sample 93,0.7 fold
same,"FC in susceptibility relative to NL4-3, versus G190S mutant",[2],the same FC
